Results on three compounds are retold here after patent US20070197509A1, “Compositions and methods for modulating gated ion channels” (PainCeptor Pharma Corporation, priority 2005, published 2007).

Experiment [1] deals with T1, hASIC1a (Homo sapiens, UniProt P78348).
T1 sequence (P78348 1-528): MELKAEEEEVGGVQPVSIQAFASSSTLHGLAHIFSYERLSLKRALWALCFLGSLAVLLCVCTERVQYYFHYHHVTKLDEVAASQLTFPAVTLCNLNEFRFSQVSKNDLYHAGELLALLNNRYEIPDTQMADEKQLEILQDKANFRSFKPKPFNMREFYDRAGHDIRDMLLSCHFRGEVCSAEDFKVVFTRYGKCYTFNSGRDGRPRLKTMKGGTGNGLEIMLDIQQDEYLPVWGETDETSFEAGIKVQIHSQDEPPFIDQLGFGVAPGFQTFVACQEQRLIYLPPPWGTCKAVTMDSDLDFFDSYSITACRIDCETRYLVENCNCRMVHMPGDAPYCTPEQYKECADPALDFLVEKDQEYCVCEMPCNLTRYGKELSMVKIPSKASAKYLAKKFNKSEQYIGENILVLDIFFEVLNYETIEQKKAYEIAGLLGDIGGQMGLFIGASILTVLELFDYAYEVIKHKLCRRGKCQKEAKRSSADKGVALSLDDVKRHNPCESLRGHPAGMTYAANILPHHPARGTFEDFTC
In words: FlexStation/FLIPR calcium-imaging assay, acid (MES)-induced response in ASIC1a expressing cells. The experiment is classed as cell-based. Details: expressed in transfected cells. On the procedure:
Identification of ASIC Antagonists Using Calcium-Imaging
ASIC1a expressing HEK293 or CHO cells are grown in culture medium (DMEM with 10% FBS), in polystyrene culture flasks ([…]) at 37° C. in a humidified atmosphere of 5% CO2. Confluency of cells should be 80-90% on day of plating. Cells are rinsed with 10 ml of PBS and re-suspended by addition of culture medium and trituration with a 25 ml pipette.
The cells are seeded at a density of approximately 1×10^5 cells/ml for HEK293 and 8×10^4 for CHO cells (100 μl/well) in black-walled, clear bottom, poly-D-lysin pre-treated 96-well plates. Plated cells were allowed to proliferate for 48 h before loading with dye.
Fluo-4/AM (1 mg, Molecular Probes) is dissolved in 912 μl DMSO. The Fluo-4/AM stock solution (1 mM) is diluted with culture medium to a final concentration of 2 μM (loading solution).
The culture medium is aspirated from the wells, and 80 μl of the Fluo-4/AM loading solution is added to each well. The cells are incubated at 37° C. for 30 min. When CHO cells are used, probenicid at 2.5 mM (final concentration) is added in the loading solution.
After the loading period (15-20 min., the loading solution is aspirated and the cells are washed twice with 100 μl modified Assay Buffer (145 mM NaCl, 5 mM KCl, 5 mM CaCl2, 1 mM MgCl2, 10 mM HEPES, pH 7.4) to remove extracellular dye. Following the second wash, 100 μl modified Assay Buffer is added to each well and the fluorescence is measured in FLIPR™ or FlexStation™ (Molecular Devices, USA), or any other suitable equipment known to the skilled in the art. When CHO cells are used, probenicid at 2.5 mM (final concentration) is added in the wash buffer.
First addition: 50 μl test solution at a rate of 26 μl/sec and a starting height of 125 μl
Second addition: 50 μl MES solution (20 mM, 5 mM final concentration) at a rate of 26 μl/sec and a starting height of 115 μl.
Reading intervals: pre-incubation—120 sec. antagonist phase, addition of MES at 145 sec. and reading time with agonist 100 sec (total run time of 240 sec).
Fluorescence obtained after stimulation is corrected for the mean basal fluorescence (in modified Assay Buffer).
(§1) The MES-induced peak calcium response (or change in membrane potential), in the presence of test substance, is expressed relative to the MES response alone. Test substances that block the MES-induced calcium response (or change in membrane potential) are re-tested in triplicates. Confirmed hits are picked for further characterization by performing full dose-response curves to determine potency of each hit compound as represented by the IC50 values (i.e., the concentration of the test substance which inhibits 50% of the MES-induced calcium and/or membrane potentiation response; see, for example, FIG. 1).

Experiment [2] relates to T2, hASIC3 (h3) and/or hASIC1a (h1a).
T2 construct: EC50 (μM) in one experiment; HEK293
In words: FlexStation/FLIPR assay, channel not marked in the cell. The experiment is classed as cell-based, human. As to conditions: Table H, cells without channel mark; HEK293; read-out: EC50 (μM) Flex/FLIPR.
Text: as §1
The data shown in Table H was acquired using the FlexStation assay described in Example 1 on HEK293 cells expressing hASIC3 (h3) and/or hASIC1a (h1a).

Experiment [3] concerns the target T1, hASIC1a. As to the kind of experiment: Two-electrode voltage clamp in Xenopus laevis oocytes expressing hASIC1a (OpusExpress). The experiment is classed as cell-based. Details: expressed in transfected cells; host or cells: Xenopus laevis oocytes, nuclear microinjection of cDNA (e.g. in pCDNA3). Particulars: for effect on hASIC1a current evoked by pH 6.5 in oocytes (FIGS. 4A-4D): OpusExpress, two-electrode voltage clamp, dose-response. An outline of the steps: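 Two-electrode voltage clamp on Xenopus oocytes expressing homomeric hASIC1a, recorded on an automated multichannel system. Oocytes superfused with Ringer (HEPES, pH 7.4); currents evoked by MES-buffered acidic Ringer, with compound present in both control and acidic solutions, at room temperature.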
In general terms: Two-electrode voltage clamp holds a large cell at a set potential and records current.

[4] abbreviates: calcium mobilization assay, HEK293, n=3-7, read-out: FPAT-ASIC1a human/HEK293/k21 IC50.

Entries after “also recorded” stand apart in the source; their conditions may differ. Where only a bound is given, the exact number is not on record here.

Regarding `COc1ccc(C(=O)CN2CCN(c3cc(C)nc4ccccc34)CC2)cc1` [Compound A, 1-(4-methoxy-phenyl)-2-[4-(2-methyl-quinolin-4-yl)-piperazin-1-yl]-ethanone], in experiment [1] (setting [4]), the IC50 was under 10 µM. Moreover, in experiment [2], the EC50 was under 10 µM. Further, the “effect on hASIC1a current evoked by pH 6.5 in oocytes (FIGS. 4A-4D)” value (from here on “effect on hASIC1a current evoked”) in experiment [3] is “effective modulators”.

As for `Fc1cccc2c(OC3CCN(Cc4ccccc4)CC3)cc(C(F)(F)F)nc12` [Compound B, 4-(1-benzyl-piperidin-4-yloxy)-8-fluoro-2-trifluoromethyl-quinoline], the IC50 in experiment [1] (setting [4]) was under 10 µM. For the same compound, the “effect on hASIC1a current evoked” value in experiment [3] is given as “dose-dependent reduction”.

On to `Cc1cc(OC2CCN(Cc3ccccc3)CC2)c2ccccc2n1` [Compound R, 4-(1-benzyl-piperidin-4-yloxy)-2-methyl-quinoline], for which the IC50 in experiment [1] (FlexStation (Flex), Tables A-F, read-out: Biological Data (IC50 uM) h1a (Flex)) is 15 to 25 µM; in experiment [3] (OpusExpress (OX), Tables A-F, h1a printed in some cells only, read-out: Biological Data (IC50 uM) h1a (OX)) it was 2 to 10 µM; in experiment [3] (Table H, read-out: IC50 (μM) Opus Express (h1a)), 1.5 µM. Besides, in experiment [1] (HEK-293 transiently expressing hASIC1a, intracellular calcium, increasing concentrations), the “inhibitory effect on acid-induced hASIC1a activity (FIG. 1)” value was “dose-dependently inhibited”. In addition, the EC50 in experiment [2] was over 10 µM. Also, in experiment [3], the “effect on hASIC1a current evoked” value is “effective modulators; also recorded: dose-dependent reduction”.
